Experiments:
[1] = test system: human hair follicle in the anagen stage; assay: Investigation of hair shaft elongation (organ culture of human hair follicle); type: cell-based; settings: 1.0×10^-5 mol/L, 5-day incubation, 9 hair follicles per group
Method: A hair follicle in the anagen stage was isolated from a human scalp under a stereoscopic microscope observation, washed with “a medium prepared by adding penicillin, streptomycin and fungizone to Williams E medium (Gibco)” (hereinafter referred to as a (−) medium) and then examined for its length.
A medium obtained by supplementing the (−) medium further with 10 ng/ml hydrocortisone, 10 μg/ml insulin, 10 ng/ml sodium selenite and 10 μg/ml transferring (hereinafter ter referred to as a (+) medium) was dispensed in an aliquot of 1 ml per well into a 24-well microplate. The hair follicle described above was precipitated therein and incubated overnight at 37° C. in the presence of 5% CO2 (preincubation).
The elongation of the hair shaft in a hair follicle was determined by inspecting the microplate described above visually using an inverted microscope with a micrometer attached thereto.
A DMSO solution of a test material was added to a (−) medium for preparation. The final concentrations of the test material and DMSO were 1.0×10^−5 mol/L and 0.1%, respectively.
Only DMSO was added to a (−) medium at the final concentration of 0.1% for preparation.
The culture medium of the hair follicle groups described above was replaced each with the test materialcontaining medium or negative control medium, and the incubation was continued further for 5 days at 37° C. in the presence of 5% CO2. The length of each hair after 5-day incubation was measured, and the means were compared with each other.

[2] = test system: telogen hair roots of male subjects; assay: Trichogram test; type: in vivo, human; settings: 50 nM in 70% ethanol, 2 ml twice a day on scalp for 6 months, 10 male subjects
Method: As test materials, Compound 1 and Compound 2 were employed. Each test material was dissolved in 70% ethanol similarly to Experiment 1 to obtain a sample (test material concentration: 50 nM).
The hair roots of hairs pulled out before and after the use of each sample were examined by a microscope to determine the telogen hair root count on the basis of the hair root morphology, and the increase or decrease in the rate was employed as an index for evaluating the hair growth promoting effect.
Specifically, each sample was applied onto the scalp of each of 10 male subjects twice a day in a 2 ml aliquot each time continuously for 6 months. 100 hairs per subject were pulled out immediately before the application and immediately after completion of 6-month application to count the telogen hair roots. The rate (%) of the number of the subjects whose telogen hair root after the application was decreased by 20% or more, changed by ±20% or increased by 20% or more with respect to that before the application was calculated.

[3] = test system: C3H/He mice, whose hair cycle was at the telogen stage; assay: Hair regrowth effect test; type: in vivo; settings: 0.1 ml once a day on shaved back, after 24 days, average of 6 mice
Method: The Compounds 1 to 5 described above were used as test materials. Each test material was dissolved in 70% ethanol aqueous solution and the solution was subjected to the application as a sample (test material concentration: 50 nM and 100 nM). 70% Ethanol was also used as a control sample.
The hair regrowth effect test was performed using C3H/He mice, whose hair cycle was at the telogen stage according to the method of Ogawa et. al. (Normal and Abnormal Epidermal Differentiation, Edited by M. Seiji and I. A. Bernstein, Pages 159-170, 1982, Todai Shuppan).
Namely, 6 mice were used in a group and their hair of the regions of back was shaved by hair clippers. 0.1 ml of sample was applied on the shaved regions once a day. After 24 days, the hair regrowth area was measured and the hair regrowth area rate was calculated based on the hair regrowth area with respect to the shaved area. The results are shown in Table 1 (expressed by average values).

[4] = Hair regrowth inducing effect test by cell cluster-accompanied culture method; type: cell-based; settings: Homo sapiens, Human dermal papilla cell, 48 h, 2 days, Alamer Blue fluorescence, relative to negative control, read-out: Relative respiration level (%)
Method: The hair regrowth inducing effect was evaluated using, as an index, an increase in respiration level of a cell cluster formed under the coexistence of a normal human outer root sheath cell and a normal human dermal papilla cell.
Normal human dermal papilla cell (DP): A DP obtained by a primary culture from a head hair was subcultured three times in a 10% FBS-supplemented DMEM medium in a 75 cm^2 incubation flask coated with Type I collagen, and then stored while being frozen in a liquid nitrogen using a cell cryopreservation solution (Cellbanker II: DIA-IATRON).
Normal human outer root sheath cell (ORS): An ORS obtained by a primary culture from a head hair was subcultured three times in a SFM medium in a 75 cm^2 incubation flask coated with Type I collagen, and then stored while being frozen in a liquid nitrogen using Cellbanker II.
The DP and ORS cells stored as frozen were thawed, washed with an ice-cooled SFM medium, dispersed in the same medium and subjected to an accurate cell density measurement using a hemocytometer. Each cell density was adjusted at 5×10^4 cells/ml accurately, and the cell dispersions in equal volumes were combined under cooling with ice. 80 μl aliquots of the combined cell suspending SFM medium were inoculated into individual wells of a 96-well microplate (Sumilon celltight, spheroid 96U plate), and incubated for 2 days. The cell count in a single well upon inoculation was 2,000 cells for each of DP and ORS, thus 4,000 cells in total.
Each 80 μl of a test material-supplemented William's E(+) medium (William's E medium supplemented with 10 μg/ml transferrin, 10 ng/ml hydrocortisone, 10 μg/ml insulin and 10 ng/ml sodium selenite) was added to each well and incubated further for 2 days.
The test material-supplemented William's E(+) medium added to each well was prepared by dissolving the test material in ethanol at a concentration of 10 mM or 100 mM and adding to William's E(+) medium at 0.2% each. Accordingly, the final concentration of the test material in each well was 10 μM or 100 μM, and each final concentration of ethanol was 0.1%.
As a negative control, 80 μl of William's E(+) medium containing 0.2% ethanol was added (final concentration of ethanol was 0.1%).
Alamer Blue, SFM medium and William's E(+) medium were mixed in 2:1:1 ratio, warmed at 37° C. and then 40 μl aliquots were added to individual wells and allowed to react for 6 hours at 37° C. After completion of the reaction, 100 μl aliquots were taken from individual wells, and transferred to a white 96-well plate for fluorescence measurement (Opaque Plate).
A fluorometer (Labsystems Fluoroskan II) was used at the excitation wavelength of 544 nm and the fluorescent wavelength of 590 nm to measure the fluorescence intensity of each well, from which the fluorescent intensity of a cell-free reaction mixture (i.e., the reaction mixture treated similarly using a cell-free SFM medium) was subtracted to obtain a respiration level under each condition. From thus obtained respiration level, a relative respiration level(%) was calculated according to the following equation.
Relative respiration level(%)={Respiration level (test material)}/{Respiration level (negative control)}×100

[5] = test system: cultured human trichoepithelial cell; assay: Trichoepithelial cell growth promoting effect test; type: cell-based; settings: 1.0×10^-6 mol/L, 2 days, Alamer Blue; negative control = 0, positive control (insulin + hydrocortisone) = 1
Method: According to the method described in JP-A-2000-63242, a cultured trichoepithelial cell of a human scalp was used to measure a trichoepithelial cell growth promoting effect.
From a human scalp obtained as a by-product of a surgical operation, a hair follicle at a anagen stage in a hair cycle was isolated mechanically under the observation by a stereoscopic microscope. This hair follicle at a anagen stage was treated in a Dulbecco's modified MEM (DMEM) supplemented with 1000 U/ml dispase and 0.2% collagenase for 30 minutes at 37° C. Adipose tissues, connective tissue root sheath and dermal papilla were removed therefrom using the tip of a syringe needle and the hair follicle was treated in a phosphate buffer containing 0.05% EDTA for 5 minutes at 37° C.
Subsequently, the hair follicle was placed on a culture dish coated with Type I collagen, and incubated in a KGM medium (serum-free keratinocyte growth medium). After incubation for 4 to 5 days, the culture medium was exchanged upon ensuring the adhesion of the hair follicle on the bottom face of the culture dish and the growth of the trichoepithelial cell, and thereafter the culture medium was exchanged every 2 days.
After the cell thus proliferated was treated in a phosphate buffer containing 0.05% trypsin and 0.02% EDTA for 5 minutes at 37° C., the reaction was quenched using an equal volume of 0.1% trypsin inhibitor and the cell was recovered by centrifugation (800×g, 5 minutes).
Subsequently, the cell was suspended in the serum-free culture medium described above, and inoculated at the density of 5000 cells/cm^2 onto a culture dish coated with Type I collagen. The culture medium was exchanged every 2 days until the cell became subconfluent. After treating the cell again in the phosphate buffer containing 0.05% trypsin and 0.02% EDTA for 5 minutes at 37° C., the reaction was quenched using an equal volume of 0.1% trypsin inhibitor and the cell was recovered by centrifugation (800×g, 5 minutes). The human trichoepithelial cell thus obtained was adjusted at the concentration of 100,000 cells/ml with a cell cryopreservation solution (Cellbanker: DIA-IATRON) added thereto, and dispensed into each freezing tube as a 100,000 cells (1 ml), which was then stored as being frozen. The cell counts described above were calculated using a hemocytometer.
After inoculating the trichoepithelial cell obtained in the step described above into a culture flask, the cell was treated with a phosphate buffer containing 0.25% trypsin and 0.02% EDTA. The reaction was quenched with 0.1% trypsin inhibitor, and then the mixture was centrifuged at 1,500 rpm for 5 minutes. The supernatant was removed, and the precipitated cell pellet was combined with a KGM medium to prepare a cell suspension.
The cell suspension in the KGM medium was inoculated to a Type I collager-coated 96-well microplate (Falcon) at 3,000 cells (0.2 ml)/well and allowed to stand for about 20 minutes at room temperature until the cell went down onto the bottom. Then, the cell was cultured for 1 day in an incubator in the presence of 5% CO2 at 37° C., whereby obtaining an intended cultured human trichoepithelial cell.
A test material and DMSO were added to a KGM medium at the final concentrations of 1.0×10^−6 mol/L and 0.1%, respectively.
Negative control: DMSO was added to a KGM medium at the final concentration of 0.1%.
Positive control: Insulin and hydrocortisone were dissolved in DMSO, which was then added to a KGM medium. The final concentrations of insulin, hydrocortisone and DMSO were 5 μg/ml, 0.5 μg/ml and 0.1%, respectively.
The KMG medium in the 96-well microplate employed for preparing the cultured human trichoepithelial cell in Step A described above was exchanged with a test material-supplemented medium or a control medium (200 μl/well), and the incubation was continued for 2 days in the presence of 5% CO2 at 37° C. […]

SMILES | Mean of hair shaft elongation [1] | Rate of telogen hair root: 20% or more decrease (rate of subjects) [2] | Rate of telogen hair root: 20% or more increse (rate of subjects) [2] | Rate of telogen hair root: ±20% (rate of subjects) [2] | Hair regrowth area rate ([3]; 50 nM in 70% ethanol) | Hair regrowth area rate ([3]; 100 nM in 70% ethanol) | activity at 10 µM [4] | activity at 100 µM [4] | Cell growth promoting index [5]
CCCCCCCCCCCCCCCCOC(CO)COC (stereo not shown) [Compound 1, 2-Hexadecyloxy-3-methoxy-1-propanol] | 1.7 mm | 70% | 0% | 30% | 70% | 93% | 139% | 157% | 1.3
CCCCCCCCCCCCCCCCOCC(O)COC (stereo not shown) [Compound 2, 1-Hexadecyloxy-3-methoxy-2-propanol] | 1.5 mm | 60% | 10% | 30% | 65% | 88% | 108% | 122% | 1.5
CCCCCCCCCCCCCCCCOCCCO [Compound 3, 3-Hexadecyloxy-1-propanol] | 1.6 mm |  |  |  | 15% | 74% | 106% | 108% | 1.4
CCCCCCCCCCCCCCCCOCC(COC)OC (stereo not shown) [Compound 4, 1-(2,3-Dimethoxypropoxy)hexadecane] | 1.9 mm |  |  |  | 68% | 78% | 127% | 134% | 1.4
CCCCCCCCCCCCCCCCCCC(CO)OC (stereo not shown) [Compound 5, 2-Methoxy-1-eicosanol] | 1.4 mm |  |  |  | 70% | 76% | 124% | 130% | 1.2
CCCCCCCCCCCCCCCCCC(=O)OCC(CO)OC (stereo not shown) [Compound 6, 3-Hydroxy-2-methoxypropyl stearate] | 1.7 mm |  |  |  |  |  | 101% | 102% | 1.3
CCCCCCCCCCCCCCCCOC(CO)CO [Compound 7, 2-Hexadecyloxy-1,3-propanediol] | 1.2 mm |  |  |  |  |  | 122% | 129% | 1.5
CCCCCCCCCCCCCCCCCCOCC(C)(C)CO [Compound 8, 2,2-Dimethyl-3-octadecyloxy-1-propanol] | 1.7 mm |  |  |  |  |  | 106% | 112% | 1.2
CCCCCCCCCCCCCCCCCCC(O)CO (stereo not shown) [Compound 9, 1,2-eicosanediol] | 1.5 mm |  |  |  |  |  | 130% | 132% | 1.2

From patent publication US20030198614A1, “Hair growers” (priority 2000, published 2003)
